# Where two headings read alike, the source gives them in different places.
# Experiments:
# [1] = tested on: S. aureus ATCC 29213 (MSSA); assay: Broth microdilution MIC and growth inhibition; format: cell-based, Staphylococcus aureus; details: for MIC: Staphylococcus aureus; for % Growth inhibition: mean ± SD, n = 3
# Excerpt: (§1) Bacteria strains. S. aureus NCTC 12493 (MRSA), S. aureus ATCC 29213 (MSSA), S. aureus ATCC 43300 (MRSA), S. aureus ATCC 1707 (MRSA), S. aureus ATCC 1717 (MRSA), S. aureus ATCC 1747 (MRSA), S. aureus ATCC 1761 (MRSA), S. aureus ATCC 1766 (MRSA), S. aureus ATCC 1768 (MRSA), S. epidermidis ATCC 35984, E. coli ATCC 25922, K. pneumoniae ATCC 13883, P. mirabilis ATCC 25933, S. enterica ATCC 14028 and P. aeruginosa ATCC 10145 strains were used in this study. Bacteria were initially inoculated onto tryptone soy agar with 5% defibrinated sheep blood (Thermo Fisher Scientific, Inc., Waltham, MA, USA) and incubated at 37° C. for 24 hours. Then, single colonies of each strain were transferred to tryptone soy broth (Thermo Fisher Scientific) for the nuclease activity assay or antimicrobial susceptibility testing, respectively.
# (§2) Antimicrobial susceptibility testing. Minimal inhibitory concentrations (MIC) of all nucleoside analogues and TOUCANs against each bacteria strain were determined using broth microdilution method. A single colony obtained from overnight culture on tryptone soy agar with 5% defibrinated sheep blood was inoculated in cation-adjusted Mueller Hinton Broth and adjusted to 10^6 CFU/mL. TOUCANs were prepared in PBS+/+ (treatment) and serial dilutions were made in 96-well polystyrene round bottom microwell plates with 50 μL final volume for each concentration. PBS+/+ was used as untreated control. Next, 50 μL bacteria solutions were added to each well to a final bacteria concentration of 5×10^5 CFU/mL. Plates were incubated at 37° C. in Cytation 1 Cell Imaging Multimode Reader. Growth curves were obtained by measuring optical densities at 600 nm every 10 minutes for 18 hours using Cytation 1 Cell Imaging Multimode Reader. In addition, visual inspection of the plates was carried out after 18 hours and photographs were taken. MICs were defined as the lowest drug concentration in the microwell at which bacterial growth was not visible at the end of the incubation period. Besides MIC determination, specificity of TOUCAN 7mGe was also shown with subcultures on chromogenic media. For this purpose, 5 μL of different concentrations of each strain were inoculated onto CHROM agar Orientation Media (Becton Dickinson) and the bacterial growth of each bacteria strain tested was observed by naked eye after incubation at 37° C. for 24 hours. Finally, photographs of the chromogenic media were taken.
# [2] = tested on: S. aureus NCTC 12493 (MRSA); assay: Broth microdilution MIC and growth inhibition; format: cell-based, Staphylococcus aureus; details: for MIC: Staphylococcus aureus; for % Growth inhibition: mean ± SD, n = 3
# Excerpt: as §1, §2
# S. aureus = assay: Growth inhibition curves / MICs in S. aureus cultures (strain not named or summary over strains); format: cell-based, Staphylococcus aureus; details: for bacterial growth inhibition: S. aureus cultures, optical density (OD) over 18 h, FIG. 1b; for MIC: Staphylococcus aureus
# Procedure: as §2
# [3] = tested on: Breast cancer cells (MDAMB231); assay: Anti-cancer drug susceptibility testing for TOUCAN 7mDx, breast cancer cells, 96 h; format: cell-based; details: FIG. 15
# Procedure: Anti-cancer drug susceptibility testing for TOUCAN 7mDx. Doxorubicin and equivalent 7mDx solutions were prepared as explained before. Then, 7mDx was pre-exposed to 5 μl of 10 U MN for 1 hour at 37° C. (7mDx+MN). 100 μl of all drugs (Doxorubicin, 7mDx, and 7mDx+MN) were added to the related wells and serially diluted using PBS+/+making the final concentrations between 20-0.3 μg/μl. Breast cancer cells (MDAMB231) were prepared as 20.000 cells/ml and 100 μl cell suspensions were added to each well. The plate was incubated at 37° C. for 96 hours. At 48th hour of incubation, 100 μl CyQUANT® Direct Cell Proliferation Assay kit was added to each well. Cell counts and images were taken at the end of 96 hours incubation period using Cytation 1 Cell Imaging Multi-Mode Reader.
# S. aureus (MN+) = assay: Nuclease activity assay with culture supernatants; format: biochemical, Staphylococcus aureus
# Procedure: (§3) Nuclease activity assay. Nuclease activity of different S. aureus strains was evaluated using the TTprobe and TTprobe 2, along with the S. epidermidis as negative control and Micrococcal Nuclease (MN) as positive control. Single colonies of each bacteria strain isolated on tryptone soy agar were transferred to 50 mL tryptone soy broth and incubated at 37° C. for 24 hours with 200 rpm shaking. After the incubation period, 100 μL volumes of liquid cultures were transferred to a fresh 50 mL tryptone soy broth (1/500 dilution) and incubated under the same conditions for 12 hours. Next, cultures were centrifuged at 4500 g for 30 minutes and the supernatants were used for the nuclease activity assay. Briefly, 8 μL of supernatants were mixed with 1 μL PBS+/+ and 1 μL TT probe. The reactions were incubated at 37° C. for 1 hour. Then, 290 μL of 10 mM EDTA in PBS−/− solution were added to stop the reaction and the final solution was divided into triplicate wells (95 μL each), in a black flat-bottom polystyrene plates (Thermo Scientific F96). Fluorescence intensity was acquired at 485/20 excitation and 528/20 emission filter pair using Cytation 1 Cell Imaging Multimode Reader (Biotek Instruments Inc., USA).
# [4] = tested on: Staphylococcus epidermidis (MN-); assay: Nuclease activity assay with culture supernatants (negative control); format: biochemical; details: S. epidermidis cultures; FIG. 3
# Procedure: as §3
# [5] = tested on: S. epidermidis ATCC 35984; assay: Broth microdilution MIC and growth inhibition (control bacteria); format: cell-based, Staphylococcus epidermidis; details: Staphylococcus epidermidis, ATCC35984; S. epidermidis ATCC 35984; 18 h; TOUCAN as NA equivalent; read-out: MIC
# Excerpt: as §1, §2
# E. coli ATCC 25922 = assay: as above; format: cell-based, Escherichia coli; details: Escherichia coli, ATCC25922, 18 h, TOUCAN as NA equivalent, read-out: MIC
# Excerpt: as §1, §2
# P. mirabilis ATCC 25933 = assay: as above; format: cell-based, Proteus mirabilis; details: Proteus mirabilis, ATCC25933, 18 h, TOUCAN as NA equivalent, read-out: MIC
# Excerpt: as §1, §2
# K. pneumoniae ATCC 13883 = assay: as above; format: cell-based; details: Klebsiella pneumoniae, ATCC13883, 18 h, TOUCAN as NA equivalent, read-out: MIC
# Excerpt: as §1, §2
# S. enterica ATCC 14028 = assay: as above; format: cell-based; details: Salmonella enterica, ATCC14028, 18 h, TOUCAN as NA equivalent, read-out: MIC
# Excerpt: as §1, §2
# P. aeruginosa ATCC 10145 = assay: as above; format: cell-based; details: Pseudomonas aeruginosa, ATCC10145, 18 h, TOUCAN as NA equivalent, read-out: MIC
# Excerpt: as §1, §2
# [6] = tested on: Pancreatic cancer cells (ASPC-1); assay: Anti-cancer drug susceptibility testing, pancreatic cancer cells, 72 h; format: cell-based; details: 72 h cultures; Gemcitabine alone, TOUCAN 7mGe spiked with MN; FIG. 13
# Procedure: (§4) Anti-cancer drug susceptibility testing for TOUCAN 7mGe. Gemcitabine and equivalent 7mGe solutions were prepared as explained before. Then, 7mGe was pre-exposed to 10 μl of 10 U MN for 1 hour at 37° C. (7mGe+MN). 100 μl of both drugs (Gemcitabine and 7mGe+MN) were added to the related wells and serially diluted using PBS+/+making the final concentrations between 100-2 μg/μl. Breast cancer cells (MDAMB231) and Pancreatic cancer cells (ASPC-1) were prepared as 10.000 cells/ml and 100 μl cell suspensions were added to each well. The plate was incubated at 37° C. for 72 hours. At 48th hour of incubation, 100 μl CyQUANT® Direct Cell Proliferation Assay kit was added to each well. Cell counts and images were taken at the end of 72 hours incubation period using Cytation 1 Cell Imaging Multi-Mode Reader.
# [7] = tested on: Breast cancer cells (MDAMB231); assay: Anti-cancer drug susceptibility testing, breast cancer cells, 72 h; format: cell-based; details: 72 h of treatment; Gemcitabine alone, TOUCAN 7mGe spiked with MN; FIG. 14
# Procedure: as §4
# [8] = tested on: S. aureus ATCC 1747 (MRSA); assay: Broth microdilution MIC and growth inhibition; format: cell-based, Staphylococcus aureus; details: Staphylococcus aureus, 18 h, TOUCAN as NA equivalent, read-out: MIC
# Excerpt: as §1, §2
# [9] = tested on: S. aureus ATCC 1766 (MRSA); assay: Broth microdilution MIC and growth inhibition; format: cell-based, Staphylococcus aureus; details: Staphylococcus aureus; S. aureus ATCC 1766 (MRSA); 18 h; TOUCAN as NA equivalent; read-out: MIC
# Excerpt: as §1, §2
# [10] = tested on: S. aureus ATCC 1717 (MRSA); assay: Broth microdilution MIC and growth inhibition; format: cell-based, Staphylococcus aureus; details: Staphylococcus aureus, 18 h, TOUCAN as NA equivalent, read-out: MIC
# Excerpt: as §1, §2
# [11] = tested on: S. aureus ATCC 43300 (MRSA); assay: Broth microdilution MIC and growth inhibition; format: cell-based, Staphylococcus aureus; details: Staphylococcus aureus, 18 h, TOUCAN as NA equivalent, read-out: MIC
# Excerpt: as §1, §2
# [12] = tested on: S. aureus ATCC 1768 (MRSA); assay: Broth microdilution MIC and growth inhibition; format: cell-based, Staphylococcus aureus; details: Staphylococcus aureus, 18 h, TOUCAN as NA equivalent, read-out: MIC
# Excerpt: as §1, §2
# [13] = tested on: S. aureus ATCC 1707 (MRSA); assay: Broth microdilution MIC and growth inhibition; format: cell-based, Staphylococcus aureus; details: Staphylococcus aureus, 18 h, TOUCAN as NA equivalent, read-out: MIC
# Excerpt: as §1, §2
# [14] = tested on: S. aureus ATCC 1761 (MRSA); assay: Broth microdilution MIC and growth inhibition; format: cell-based, Staphylococcus aureus; details: Staphylococcus aureus, 18 h, TOUCAN as NA equivalent, read-out: MIC
# Excerpt: as §1, §2
# [15] = Table 1, S. aureus ATCC 29213, read-out: MIC
# [16] = Table 1, S. aureus NCTC 12493, read-out: MIC
compound,measurement,setting,value
O=c1[nH]c(=O)n([C@H]2C[C@H](O)[C@@H](CO)O2)cc1I [Idoxuridine],MIC,[1]; [15],> 40000 ng/mL
same,% Growth inhibition,"[1]; Table 1, S. aureus ATCC 29213",13.4 ± 3.4%
same,MIC,[2]; [16],> 40000 ng/mL
same,% Growth inhibition,"[2]; Table 1, S. aureus NCTC 12493",46.0 ± 0.6%
Nc1ncnc2c1ncn2[C@@H]1O[C@H](CO)[C@@H](O)[C@@H]1O [Vidarabine],MIC,[1]; [15],> 40000 ng/mL
same,% Growth inhibition,"[1]; Table 1, S. aureus ATCC 29213",34.1 ± 0.8%
same,MIC,[2]; [16],40000 ng/mL
same,% Growth inhibition,"[2]; Table 1, S. aureus NCTC 12493",85.1 ± 0.8%
O=c1[nH]c(=O)n([C@H]2C[C@H](O)[C@@H](CO)O2)cc1C(F)(F)F [Trifluridine],MIC,[1],10000 ng/mL
same,% Growth inhibition,"[1]; Table 1, S. aureus ATCC 29213",89.0 ± 5.1%
same,MIC,[2],10000 ng/mL
same,% Growth inhibition,"[2]; Table 1, S. aureus NCTC 12493",88.5 ± 1.1%
Nc1ccn([C@@H]2O[C@H](CO)[C@@H](O)[C@@H]2O)c(=O)n1 [Cytarabine],MIC,[1]; [15],> 40000 ng/mL
same,% Growth inhibition,"[1]; Table 1, S. aureus ATCC 29213",16.3 ± 6.9%
same,MIC,[2]; [16],> 40000 ng/mL
same,% Growth inhibition,"[2]; Table 1, S. aureus NCTC 12493",39.4 ± 2.5%
mU-mU-mU-mU-Ge-mU-mU-mU-mU [Ge-Control],bacterial growth inhibition,S. aureus,low growth inhibition efficiency
mU-mU-mU-mU-T-T-Dx [TOUCAN 7mDx],effect on viability of breast cancer cells,[3]; 7mDx alone (no nuclease),did not show a significant effect on viability
same,therapeutic efficacy in breast cancer cells (viability),[3]; 7mDx spiked with MN,remarkable therapeutic efficacy
FAM-mU-mU-mU-mU-T-T-mU-mU-mU-mU-TQ2 [TTprobe2],degradation by nucleases,"S. aureus (MN+); S. aureus cultures, FIG. 3",efficient degradation
same,degradation by nucleases,"S. aureus (MN+); all S. aureus strains used in the study, FIG. 4",efficiently
same,stability in presence of control bacteria,[4],rendered stable
"Nc1ccn([C@@H]2O[C@H](CO)[C@@H](O)C2(F)F)c(=O)n1 [Gemcitabine, reference compound]",MIC,[5],2 ng/mL
same,MIC,E. coli ATCC 25922,> 40000 ng/mL
same,MIC,P. mirabilis ATCC 25933,> 40000 ng/mL
same,MIC,K. pneumoniae ATCC 13883,> 40000 ng/mL
same,MIC,S. enterica ATCC 14028,> 40000 ng/mL
same,MIC,P. aeruginosa ATCC 10145,> 40000 ng/mL
same,MIC,S. aureus; read-out: MIC values over all S. aureus strains tested,4 to 16 ng/mL
same,MIC,"S. aureus; S. aureus, strain not given, read-out: MIC",4 ng/mL
same,killing of pancreatic cancer cells (viability),[6],efficient in killing
same,therapeutic effect in breast cancer cells (viability),[7],clear therapeutic effect
same,MIC,[8],8 ng/mL
same,MIC,[9],8 ng/mL
same,MIC,[10],8 ng/mL
same,MIC,[11],4 ng/mL
same,MIC,[12],8 ng/mL
same,MIC,"[1]; S. aureus ATCC 29213 (MSSA), 18 h, TOUCAN as NA equivalent, read-out: MIC",4 ng/mL
same,MIC,[1]; [15],4 ng/mL
same,% Growth inhibition,"[1]; Table 1, S. aureus ATCC 29213",94.2 ± 0.04%
same,MIC,[13],8 ng/mL
same,MIC,[14],16 ng/mL
same,MIC,"[2]; S. aureus NCTC 12493 (MRSA), 18 h, TOUCAN as NA equivalent, read-out: MIC",4 ng/mL
same,MIC,[2]; [16],4 ng/mL
same,% Growth inhibition,"[2]; Table 1, S. aureus NCTC 12493",93.7 ± 0.2%
T-T-Ge-mU-mU-mU-mU [SDR probe],inhibition of bacterial growth (therapeutic efficacy),"S. aureus; combinations of the R-S-D moieties, FIG. 1c",30%
"mU-mU-mU-mU-Ge-T-T-mU-mU-mU-mU (UUUUGTTUUUU; chemistry not given here) [GeTT, TOUCAN with Gemcitabine upstream of TT]",bacterial growth inhibition,S. aureus,low growth inhibition efficiency
"mU-mU-mU-mU-T-T-Ge-mU-mU-mU-mU (UUUUTTGUUUU; chemistry not given here) [TTGe, TOUCAN with Gemcitabine downstream of TT]",bacterial growth inhibition,S. aureus,around 20%

# — patent publication US20250269039A1, “THERAPEUTIC-OLIGONUCLEOTIDES ACTIVATED BY NUCLEASES” (priority 2020, published 2025)
